Data taken from the supplement of paper PMC10307832.

Tests used:
Assay in all cases: relative viability (nuclei count vs DMSO), 5 days (fraction); higher = more cells survive
NCI-H661 = tested on: NCI-H661
Method in brief: (§1)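 Medians of duplicate plates are given as relative viability. That measure is the nuclei count in treated wells divided by the count in vehicle wells. Counts were taken on 4× images of lung cancer cell lines in 1536-well plates, 5 days after pin-tool dosing the day after seeding with one drug alone or a fixed anchor-drug dose plus five library-drug doses (not always all listed) in √10 steps.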

NCI-H650 = tested on: NCI-H650
Method in brief: as §1

A-427 = tested on: A-427
Method in brief: as §1

NCI-H1944 = tested on: NCI-H1944
Method in brief: as §1

LC-2-ad = tested on: LC-2-ad
Method in brief: as §1

BEN = tested on: BEN
Method in brief: as §1

HCC-15 = tested on: HCC-15
Method in brief: as §1

NCI-H1650 = tested on: NCI-H1650
Method in brief: as §1

NCI-H1915 = tested on: NCI-H1915
Method in brief: as §1

NCI-H1651 = tested on: NCI-H1651
Method in brief: as §1

NCI-H1792 = tested on: NCI-H1792
Method in brief: as §1

201T = tested on: 201T
Method in brief: as §1

NCI-H460 = tested on: NCI-H460
Method in brief: as §1

H3255 = tested on: H3255
Method in brief: as §1

CAL-12T = tested on: CAL-12T
Method in brief: as §1

NCI-H520 = tested on: NCI-H520
Method in brief: as §1

LCLC-97TM1 = tested on: LCLC-97TM1
Method in brief: as §1

NCI-H2023 = tested on: NCI-H2023
Method in brief: as §1

NCI-H441 = tested on: NCI-H441
Method in brief: as §1

PC-3 [JPC-3] = tested on: PC-3 [JPC-3]
Method in brief: as §1

NCI-H596 = tested on: NCI-H596
Method in brief: as §1

ABC-1 = tested on: ABC-1
Method in brief: as §1

NCI-H727 = tested on: NCI-H727
Method in brief: as §1

NCI-H2087 = tested on: NCI-H2087
Method in brief: as §1

Clc1ccc(Nc2nnc(Cc3ccncc3)c3ccccc23)cc1 [Vatalanib] + Cc1nc(Nc2ncc(C(=O)Nc3c(C)cccc3Cl)s2)cc(N2CCN(CCO)CC2)n1 [Dasatinib] (partner 0.075 µM)
relative viability (NCI-H661; first compound 0.04 µM): 0.935 | relative viability (NCI-H661; first compound 0.1265 µM): 0.854 | relative viability (NCI-H661; first compound 0.4 µM): 1.06 | relative viability (NCI-H661; first compound 1.265 µM): 0.853 | relative viability (NCI-H661; first compound 4 µM): 0.804 | relative viability (NCI-H650; first compound 0.04 µM): 0.434 | relative viability (NCI-H650; first compound 0.1265 µM): 0.448 | relative viability (NCI-H650; first compound 1.265 µM): 0.399 | relative viability (NCI-H650; first compound 4 µM): 0.434 | relative viability (A-427; first compound 0.04 µM): 0.784 | relative viability (A-427; first compound 0.1265 µM): 0.642 | relative viability (A-427; first compound 0.4 µM): 0.638 | relative viability (A-427; first compound 1.265 µM): 0.662 | relative viability (A-427; first compound 4 µM): 0.732 | relative viability (NCI-H1944; first compound 0.04 µM): 0.227 | relative viability (NCI-H1944; first compound 0.1265 µM): 0.228 | relative viability (NCI-H1944; first compound 0.4 µM): 0.254 | relative viability (NCI-H1944; first compound 1.265 µM): 0.23 | relative viability (NCI-H1944; first compound 4 µM): 0.228 | relative viability (LC-2-ad; first compound 0.04 µM): 0.739 | relative viability (LC-2-ad; first compound 0.1265 µM): 0.492 | relative viability (LC-2-ad; first compound 1.265 µM): 0.507 | relative viability (LC-2-ad; first compound 4 µM): 0.536 | relative viability (BEN; first compound 0.04 µM): 0.308 | relative viability (BEN; first compound 0.1265 µM): 0.271 | relative viability (BEN; first compound 0.4 µM): 0.315 | relative viability (BEN; first compound 1.265 µM): 0.29 | relative viability (BEN; first compound 4 µM): 0.342 | relative viability (HCC-15; first compound 0.04 µM): 0.611 | relative viability (HCC-15; first compound 0.1265 µM): 0.628 | relative viability (HCC-15; first compound 0.4 µM): 0.628 | relative viability (HCC-15; first compound 1.265 µM): 0.524 | relative viability (HCC-15; first compound 4 µM): 0.538 | relative viability (NCI-H1650; first compound 0.04 µM): 0.346 | relative viability (NCI-H1650; first compound 0.1265 µM): 0.275 | relative viability (NCI-H1650; first compound 0.4 µM): 0.354 | relative viability (NCI-H1650; first compound 1.265 µM): 0.217 | relative viability (NCI-H1650; first compound 4 µM): 0.289 | relative viability (NCI-H1915; first compound 0.04 µM): 0.322 | relative viability (NCI-H1915; first compound 0.1265 µM): 0.321 | relative viability (NCI-H1915; first compound 0.4 µM): 0.339 | relative viability (NCI-H1915; first compound 1.265 µM): 0.279 | relative viability (NCI-H1915; first compound 4 µM): 0.349 | relative viability (NCI-H1651; first compound 0.04 µM): 0.317 | relative viability (NCI-H1651; first compound 0.1265 µM): 0.31 | relative viability (NCI-H1651; first compound 0.4 µM): 0.421 | relative viability (NCI-H1651; first compound 1.265 µM): 0.462 | relative viability (NCI-H1651; first compound 4 µM): 0.372 | relative viability (NCI-H1792; first compound 0.04 µM): 0.724 | relative viability (NCI-H1792; first compound 0.1265 µM): 0.814 | relative viability (NCI-H1792; first compound 0.4 µM): 0.758 | relative viability (NCI-H1792; first compound 1.265 µM): 0.811 | relative viability (NCI-H1792; first compound 4 µM): 0.759 | relative viability (201T; first compound 0.04 µM): 0.576 | relative viability (201T; first compound 0.1265 µM): 0.564 | relative viability (201T; first compound 0.4 µM): 0.594 | relative viability (201T; first compound 1.265 µM): 0.555 | relative viability (201T; first compound 4 µM): 0.579 | relative viability (NCI-H460; first compound 0.04 µM): 0.558 | relative viability (NCI-H460; first compound 0.1265 µM): 0.498 | relative viability (NCI-H460; first compound 0.4 µM): 0.54 | relative viability (NCI-H460; first compound 1.265 µM): 0.351 | relative viability (NCI-H460; first compound 4 µM): 0.409 | relative viability (H3255; first compound 0.04 µM): 0.316 | relative viability (H3255; first compound 0.1265 µM): 0.385 | relative viability (H3255; first compound 0.4 µM): 0.311 | relative viability (H3255; first compound 1.265 µM): 0.28 | relative viability (H3255; first compound 4 µM): 0.335 | relative viability (CAL-12T; first compound 0.04 µM): 0.526 | relative viability (CAL-12T; first compound 0.1265 µM): 0.351 | relative viability (CAL-12T; first compound 0.4 µM): 0.464 | relative viability (CAL-12T; first compound 1.265 µM): 0.28 | relative viability (CAL-12T; first compound 4 µM): 0.374 | relative viability (NCI-H520; first compound 0.04 µM): 0.205 | relative viability (NCI-H520; first compound 0.1265 µM): 0.202 | relative viability (NCI-H520; first compound 0.4 µM): 0.218 | relative viability (NCI-H520; first compound 1.265 µM): 0.161 | relative viability (NCI-H520; first compound 4 µM): 0.126 | relative viability (LCLC-97TM1; first compound 0.04 µM): 0.994 | relative viability (LCLC-97TM1; first compound 0.1265 µM): 0.621 | relative viability (LCLC-97TM1; first compound 0.4 µM): 0.839 | relative viability (LCLC-97TM1; first compound 1.265 µM): 0.775 | relative viability (LCLC-97TM1; first compound 4 µM): 0.871 | relative viability (NCI-H2023; first compound 0.04 µM): 0.671 | relative viability (NCI-H2023; first compound 0.1265 µM): 0.563 | relative viability (NCI-H2023; first compound 0.4 µM): 0.653 | relative viability (NCI-H2023; first compound 1.265 µM): 0.484 | relative viability (NCI-H2023; first compound 4 µM): 0.482 | relative viability (NCI-H441; first compound 0.04 µM): 0.634 | relative viability (NCI-H441; first compound 0.1265 µM): 0.627 | relative viability (NCI-H441; first compound 0.4 µM): 0.573 | relative viability (NCI-H441; first compound 1.265 µM): 0.605 | relative viability (NCI-H441; first compound 4 µM): 0.551 | relative viability (PC-3 [JPC-3]; first compound 0.04 µM): 0.949 | relative viability (PC-3 [JPC-3]; first compound 0.1265 µM): 0.982 | relative viability (PC-3 [JPC-3]; first compound 0.4 µM): 0.951 | relative viability (PC-3 [JPC-3]; first compound 1.265 µM): 0.913 | relative viability (PC-3 [JPC-3]; first compound 4 µM): 0.891 | relative viability (NCI-H596; first compound 0.04 µM): 0.643 | relative viability (NCI-H596; first compound 0.1265 µM): 0.652 | relative viability (NCI-H596; first compound 0.4 µM): 0.637 | relative viability (NCI-H596; first compound 1.265 µM): 0.518 | relative viability (NCI-H596; first compound 4 µM): 0.592 | relative viability (ABC-1; first compound 0.04 µM): 0.722 | relative viability (ABC-1; first compound 1.265 µM): 0.514 | relative viability (ABC-1; first compound 4 µM): 0.581 | relative viability (NCI-H727; first compound 0.04 µM): 0.339 | relative viability (NCI-H727; first compound 0.1265 µM): 0.37 | relative viability (NCI-H727; first compound 0.4 µM): 0.326 | relative viability (NCI-H727; first compound 1.265 µM): 0.41 | relative viability (NCI-H727; first compound 4 µM): 0.425 | relative viability (NCI-H2087; first compound 0.04 µM): 0.937 | relative viability (NCI-H2087; first compound 0.1265 µM): 0.769 | relative viability (NCI-H2087; first compound 0.4 µM): 1.09 | relative viability (NCI-H2087; first compound 1.265 µM): 0.808 | relative viability (NCI-H2087; first compound 4 µM): 0.884
